For 80 molecules, RP-LC retention time results are on record in the METLIN SMRT retention time set (Domingo-Almenara et al. 2019).

Each structure is given as a SMILES string.

A short description of this series: gradient 5% acetonitrile 3 min, to 50% in 2 min, to 85% in 15 min, held 3 min, 100 µL/min. The following applies: column: Zorbax Extend-C18 2.1 x 50 mm; eluents: water / acetonitrile, 0.1% formic acid. A digest of the protocol: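 A Zorbax Extend-C18 column (2.1 × 50 mm, 1.8 μm) run at 100 μL/min with water and acetonitrile, both containing 0.1% formic acid, separated mixtures of ~100 pure standards. The HPLC was coupled to a quadrupole time-of-flight mass spectrometer operated in positive and negative ionization mode, with dead and dwell volumes of 40 μL and 900 μL. Each retention time was taken from a computationally picked adduct peak that was then manually inspected.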
Molecule `CCOc1ccc(-c2nc(COc3cc(C(F)(F)F)c4c(C)nn(C)c4n3)c(C)o2)cc1OC` showed an RP-LC retention time of 1330 s.
The result for `CCOc1ccc(NC(=O)COc2cc(C(=O)OC)nc3ccc(OC)cc23)cc1` reads 817 s.
In turn, `CC(C)NC(=O)N1CCC[C@H]1c1nc(-c2ccc(F)cc2)n[nH]1` registered an RP-LC retention time of 678 s.
Next, `CC(C)Cc1csc(-c2csc(S(=O)(=O)NCc3ccc(F)cc3F)c2)n1`: 1160 s; `O=C(CN1CCCc2nc(C3CC3)ncc2C1=O)NC1CCCCC1`: 723 s; `CCc1nc(-c2csc(S(=O)(=O)N3CCCC(C(=O)Nc4ccc(C)cn4)C3)c2)no1` (stereo not given): 831 s.
`CNC(=O)C(=O)NCC1CCN(S(C)(=O)=O)CC1` came in with an RP-LC retention time of 541 s.
In the case of `Cc1cc(-c2c(C)sc(C)c2S(=O)(=O)NC2CCCCCC2)n[nH]1`, the RP-LC retention time was determined as 1140 s.
The result for `Cc1nc2nc(-c3ccc(C(C)(C)C)cc3)nn2c(C)c1CC(=O)N1CCC(C)CC1` reads 1090 s; that for `CCOC(=O)c1noc2nc(C)nc(NCCCN(C)c3ccccc3)c12`, 897 s; that for `C[C@H]1CN(C(=O)c2c(F)cccc2F)C[C@@H]1c1nc(-c2ccccc2)no1`, 1020 s.
Regarding `O=C([C@@H]1C[C@H](F)CN1C(=O)Cc1ccccc1F)N1CCCCC1`, the RP-LC retention time came out at 684 s.
With `Cc1ccc(S(=O)(=O)Nc2ccc(-c3cn4ccc(C)nc4n3)cc2)cc1`, the RP-LC retention time came to 646 s.
For `Cc1nc(-c2noc(-c3ccc(F)cc3)n2)cn1CC(=O)NC1CCc2ccccc21` (stereo not given), the RP-LC retention time came to 874 s.
In turn, `O=S(=O)(c1ccc(-c2nnc(C3CCCC3)o2)o1)N1CCN(c2ccccn2)CC1` displayed an RP-LC retention time of 726 s.
The result for `COC(=O)c1ccc(NC(=O)c2cnc(-c3ccc(C)cc3)nc2-c2ccncc2)cc1` reads 961 s; that for `Cc1nc(N2CCOCC2)c2c(C(=O)Nc3cccc(F)c3)c(C)oc2n1`, 817 s; that for `Cc1noc(C)c1-c1ccc(S(=O)(=O)N2CC=C(c3ccccc3)CC2)cc1`, 1110 s.
In turn, `CCOC(=O)c1ccc2nc(NC(=O)c3ccn(C)n3)sc2c1` returned an RP-LC retention time of 828 s.
The result for `Cc1c(C(=O)NCCCN2CCOCC2)oc2ccc3c(c12)C(O)CC1(CCCCC1)O3` (stereo not given) reads 688 s; that for `COc1ccc2[nH]cc(CCNC(=O)CN3C(=O)c4cccnc4Sc4ccccc43)c2c1`, 734 s; that for `N#Cc1cccc(S(=O)(=O)N2CCC(c3nnc(C(=O)Nc4ccc5c(c4)OCO5)s3)CC2)c1`, 951 s.
For the molecule `CN(CCc1noc(C2CN(C(=O)c3ccsc3)C2)n1)C(=O)C1CC1`, the RP-LC retention time was 647 s.
The result for `COc1cccc(Cc2nc(Cc3nc(-c4ccccc4)oc3C)no2)c1` reads 1090 s.
`CSc1cccc(NC(=O)Cn2cccc(-c3nc(-c4ccc(Cl)cc4)no3)c2=O)c1` showed an RP-LC retention time of 1020 s.
`COc1ccc(S(=O)(=O)NCc2c(-c3ccccc3)nc3sc(C)nn23)cc1` returned an RP-LC retention time of 832 s.
Next, `CCOC(=O)c1[nH]c(C)c(C(=O)C(C)N(CCC(C)C)C(=O)c2ccc(C)cc2)c1C` (stereo not given): 1110 s; `O=C([C@@H]1C[C@H](F)CN1C(=O)c1ccccc1Cl)N1CCOCC1`: 619 s; `COc1ccc(NC(=O)c2noc3c2CCCCC3)cc1OC`: 907 s.
Next, `CN1C(=O)CCCCC1C(=O)NCc1cccs1` (stereo not given): 637 s; `Cn1cc(CCNS(=O)(=O)c2ccccc2C(F)(F)F)c2cccnc21`: 764 s; `CCN1C(=O)c2cccnc2Sc2cc(NC(=O)C3CCCCC3)ccc21`: 877 s.
Consider `O=C(NCCN1CCN(C(=O)c2ccc(Br)cc2)CC1)C(=O)NCc1ccco1`, for which the RP-LC retention time was found to be 626 s.
Regarding `CC1CCN(C(=O)C2CC(=O)N(CCc3c[nH]c4ccc(Cl)cc34)C2)CC1` (stereo not given), the RP-LC retention time came out at 855 s.
The result for `O=C(CNC(=O)C1COc2ccccc2O1)NCCc1c[nH]c2ccccc12` (stereo not given) reads 780 s; that for `CCCN1C(=O)CCc2cc(NS(=O)(=O)c3ccc(C(F)(F)F)cc3)ccc21`, 914 s.
The molecule `CCCn1nc(CNC(=O)Cc2cccs2)c2ccccc21` gave an RP-LC retention time of 847 s.
Next, `O=[N+]([O-])c1cccc(C2SCCN2S(=O)(=O)c2ccc(Br)cc2)c1` (stereo not given): 1020 s; `Cc1ccc(CNC(=O)C2=CCN(Cc3cccc(F)c3)CC2)o1`: 626 s; `Cc1ccc(CN2C(=O)COc3ccc(C(=O)NC(C)(C)C)cc32)cc1`: 910 s.
`Cc1cc(N2CCN(c3ccccn3)CC2)n2nc(C)c(-c3ccc(F)cc3)c2n1` gave an RP-LC retention time of 664 s.
Next, `CC(C)CN1CCN(Cc2nc(-c3ccc(N4CCSCC4)nc3)no2)CC1`: 635 s.
Next, `CCOc1ccc(C(=O)N2CCc3nc[nH]c3C2)cc1`: 565 s.
Next, `Cc1cc2nc(C(F)(F)F)c(=O)n(C(C)C(=O)NCCCN3CCCC3)c2cc1C` (stereo not given): 714 s; `CCCN1CCN(C(=O)Cn2c3ccccc3c3cnn(C)c(=O)c32)CC1`: 590 s; `Cc1nnc(NC(=O)CN2CC(c3nc(C4CC4)no3)C2)s1`: 537 s.
Consider `CCc1onc(C)c1C1CCCN1C(=O)c1ccc(F)cc1` (stereo not given), for which the RP-LC retention time worked out at 736 s.
The result for `Cc1ccc(C)c(S(=O)(=O)N2CCN(c3ccc(-n4nc(C)c(C)c4C)nn3)CC2)c1` reads 995 s; that for `CCc1cccc(C)c1NC(=O)C1CCN(S(C)(=O)=O)c2cc(C)ccc2O1` (stereo not given), 671 s.
Next, `CCn1ccc2sc(C)c(C(=O)NCc3ccccc3F)c2c1=O`: 818 s; `Cc1ccc(N2N=NC3C(=O)N(c4cccc(Cl)c4)C(=O)C32)cc1F` (stereo not given): 1060 s; `Cc1ccn2cc(-c3ccc(NC(=O)Nc4ccc(Cl)cc4)cc3)nc2n1`: 711 s.
`O=C(O)CC1(CC(=O)Nc2nc(-c3cccc4ccccc34)cs2)CCCC1` had an RP-LC retention time of 1040 s.
As to `CCOC(=O)c1ccc(NC(=O)NCc2noc3ccc(C)cc23)cc1`, the RP-LC retention time was 944 s.
For `COCCN1C(=O)Cc2ccccc2C1C(=O)NCc1ccccc1Cl` (stereo not given), the RP-LC retention time came to 775 s.
Next, `CCc1cccc(NC(=O)Cc2nnc3cc(-c4nc(C(C)C)no4)ccn23)c1`: 918 s; `CS(=O)(=O)N1C[C@@H](COc2ccncc2)[C@H](c2ccccn2)C1`: 542 s; `O=C(CNC(=O)c1ccc(=O)[nH]c1)NCC1CCCCC1`: 599 s.
Molecule `Cc1ccsc1CN1CCn2c(nnc2[C@@H]2C[C@@H](O)CN2Cc2cccnc2)C1` had an RP-LC retention time of 591 s.
Regarding `CCOc1cccc(CNC(=O)c2nc3cccnc3n(CC)c2=O)c1`, the RP-LC retention time is 548 s.
The result for `CCNC(=O)NCCc1cn(CC(C)C)c2ncccc12` reads 631 s.
The result for `Cc1cc(C)cc(NC(=O)Cn2c(=O)c3cc(C4CC4)nn3c3ncccc32)c1` reads 837 s.
`CS(=O)(=O)N1CCCc2cc(C(=O)N3CCOCC3)ccc21` yielded an RP-LC retention time of 654 s.
`CC(C)CCNC(=O)c1cccc2c1CCN2C(=O)C1CC1`: the RP-LC retention time was 831 s.
Next, `CSc1ccc(-c2nc3cnccn3c2Nc2cccc(C)c2C)cc1`: 1060 s; `Cc1ccc(Cn2c(N3CCCC(C(=O)NCc4cccs4)C3)nc3ccsc3c2=O)cc1` (stereo not given): 952 s.
Next, `CC[C@@H]1C(=O)N(C)c2cnc(Nc3ccc(C(=O)NC4CCN(C)CC4)cc3OC)nc2N1C1CCCC1`: 624 s.
For the molecule `CC(C)CNC(=O)CCc1nc2ccccc2n(CC(=O)Nc2ccc(C(C)C)cc2)c1=O`, the RP-LC retention time is 949 s.
Next, `O=C(CC(c1ccccc1)c1ccccc1)NCC(O)c1cccs1` (stereo not given): 809 s.
In turn, `O=C(NCc1cccs1)C1CN(C(=O)c2ccc(F)c(F)c2)C1` gave an RP-LC retention time of 688 s.
For the molecule `CCOC(=O)c1noc2nc(C)nc(NCc3ccc(OC)cc3)c12`, the RP-LC retention time stood at 1010 s.
In turn, `CCn1c(CCNC(=O)c2ccc3ccccc3n2)nc2cccnc21` had an RP-LC retention time of 685 s.
Next, `Cc1nc2cc(-c3noc(Cc4cccc5ccccc45)n3)ccc2o1`: 1130 s.
Next, `Cc1cccc(OCc2nc(C)c(C(=O)Nc3nc(-c4ccccc4)cs3)s2)c1`: 1230 s; `Cc1cc(C)cc(C(=O)Nc2cc(-c3cccnc3)no2)c1`: 838 s; `CCOc1ccccc1C(=O)N(CC)c1nc(-c2ccc(C)cc2)cs1`: 1420 s.
The result for `CCC(=O)N1CCc2c(C(=O)NC3CCCC3)cccc21` reads 765 s; that for `CCc1nc(-c2ccc(-c3noc(CN4C(=O)COc5ccc(Cl)cc54)n3)cc2)cs1`, 1270 s.
In turn, `CN1C2CCC1CC(OC(=O)C(O)c1ccccc1)C2` (stereo not given) had an RP-LC retention time of 794 s.
Regarding `Cc1ccc(NC(=O)Cn2c(=O)n(-c3ccccc3)c(=O)c3c2cc(C)n3C)cc1`, the RP-LC retention time was determined as 827 s.
